Source: patent US20200289474A1, “METHODS OF TREATING PAIN WITH A THIAZOLINE ANTI-HYPERALGESIC” (priority 2019, published 2020)
Read-outs that look alike come from different tables or passages of the source.

Experiments:
PN-mediated cytotoxicity = test: cell-based assays of PN-mediated cytotoxicity
stability in plasma = format: in vitro ADME; conditions: dog plasma
allodynia = test: methylglyoxal-induced diabetic neuropathy model; format: in vivo; conditions: rat
BCRP = biological target: T1, BCRP (Homo sapiens, UniProt Q9UNQ0); test: transporter inhibition, MDCKII-BCRP cells, prazosin transport; format: in vitro ADME
T1 construct: expressed in transfected cells
T1 sequence (Q9UNQ0 1-655): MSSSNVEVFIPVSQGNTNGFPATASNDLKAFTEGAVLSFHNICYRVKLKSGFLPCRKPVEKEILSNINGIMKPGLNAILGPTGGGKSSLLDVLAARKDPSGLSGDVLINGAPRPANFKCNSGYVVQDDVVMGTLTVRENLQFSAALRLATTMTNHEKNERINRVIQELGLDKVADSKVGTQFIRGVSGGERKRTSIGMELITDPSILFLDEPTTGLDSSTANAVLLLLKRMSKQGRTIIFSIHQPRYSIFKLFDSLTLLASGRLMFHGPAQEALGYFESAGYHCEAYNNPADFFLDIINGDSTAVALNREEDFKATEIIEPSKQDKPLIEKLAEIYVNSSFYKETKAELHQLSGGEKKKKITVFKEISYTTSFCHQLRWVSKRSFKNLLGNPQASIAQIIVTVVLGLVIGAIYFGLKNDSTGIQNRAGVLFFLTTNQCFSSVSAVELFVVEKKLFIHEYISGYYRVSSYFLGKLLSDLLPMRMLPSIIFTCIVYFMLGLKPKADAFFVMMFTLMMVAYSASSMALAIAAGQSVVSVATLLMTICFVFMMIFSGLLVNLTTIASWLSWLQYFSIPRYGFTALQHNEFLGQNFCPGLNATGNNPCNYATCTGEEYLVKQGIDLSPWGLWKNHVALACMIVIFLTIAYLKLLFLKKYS

MDCKII control cells = test: cytotoxicity by lactate dehydrogenase (LDH) release; format: cell-based
[1] = rat single dose excretion/metabolite study (urine and feces); format: in vivo
Source text: Further metabolism work in additional species will be undertaken.

[2] = stability in plasma from a variety of species; format: in vitro ADME
lactoperoxidase = lactoperoxidase oxidation (mediated by peroxide); format: biochemical; conditions: physiological conditions (neutral pH)
[3] = dog 28-day repeat dose PO study; format: in vivo; conditions: for Cmax: dog 28 Day PO
Experimental: Beagle dogs (4/sex/group plus 2/sex/group for control and high dose animals for recovery) were administered daily doses of 0, 100, 250 or 400 mg/kg/day of Compound 1 in 0.5% HPMC. […] Dogs in Group 1 (Vehicle Control) were bled once at approximately 2-4 hours post-dose on those days.

Caco-2 cells = test: cytotoxicity by lactate dehydrogenase (LDH) release; format: cell-based
OATP1B3 = biological target: T2, OATP1B3 (Homo sapiens, UniProt Q9NPD5); test: transporter inhibition, HEK293 cells, probe accumulation; format: in vitro ADME
T2 construct: expressed in transfected cells; host or cells: HEK293 cells
T2 sequence (Q9NPD5 1-702): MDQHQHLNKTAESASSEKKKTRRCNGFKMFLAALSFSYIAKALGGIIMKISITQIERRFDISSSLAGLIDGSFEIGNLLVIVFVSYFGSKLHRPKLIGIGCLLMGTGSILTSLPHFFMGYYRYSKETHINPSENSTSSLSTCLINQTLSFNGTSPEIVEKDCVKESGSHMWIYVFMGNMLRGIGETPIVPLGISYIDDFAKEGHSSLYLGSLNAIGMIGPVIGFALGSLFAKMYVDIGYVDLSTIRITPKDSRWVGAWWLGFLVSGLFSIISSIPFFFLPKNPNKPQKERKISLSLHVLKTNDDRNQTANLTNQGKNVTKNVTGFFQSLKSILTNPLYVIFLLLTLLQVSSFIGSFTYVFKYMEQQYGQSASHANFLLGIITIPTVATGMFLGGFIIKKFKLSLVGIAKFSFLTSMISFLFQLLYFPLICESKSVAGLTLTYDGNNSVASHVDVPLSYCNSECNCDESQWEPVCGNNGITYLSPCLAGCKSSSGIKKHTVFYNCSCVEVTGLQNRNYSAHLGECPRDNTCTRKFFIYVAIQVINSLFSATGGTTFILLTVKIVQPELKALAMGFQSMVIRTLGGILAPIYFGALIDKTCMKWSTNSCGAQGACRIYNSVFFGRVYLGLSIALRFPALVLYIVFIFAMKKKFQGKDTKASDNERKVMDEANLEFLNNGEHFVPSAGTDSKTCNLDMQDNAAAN

[4] = dog single oral dose MTD study; format: in vivo; conditions: for Average Compound 1 Concentration in Dog Plasma: N = 2
Experimental: Using a pyramiding dose schedule, dose levels of 250, 350 and 500 mg/kg were administered to 2 dogs/sex (after a washout period of at least three days, the same animals were dosed with the next dose level). The dose volume was 10 mL/kg body weight. The vehicle was 0.5% aqueous HPMC.

In the case of `CC1(C)SC(Nc2ccccc2O)=N[C@@H]1C(=O)O.Cl` [Compound 1, (R)-2-(2-hydroxyphenylamino)-5,5-dimethyl-4,5-dihydrothiazole-4-carboxylic acid mono-hydrochloride], the “effect in PN-mediated cytotoxicity” value (PN-mediated cytotoxicity) was “protective”, the stability in plasma (stability in plasma) was “stable” and the “effect on allodynia, methylglyoxal-induced diabetic neuropathy” value (allodynia) was “alleviates allodynia”. The “inhibition” value (BCRP) was “modestly inhibits”, the “percent cytotoxicity (LDH release)” value (MDCKII control cells; 100 μM) was 31.3% and the “percent cytotoxicity (LDH release)” value (MDCKII control cells; 600 μM) was 33.6%. For the same compound, the “administered compound recovered unchanged” value ([1]; rat single dose, urine and feces) was 5-15%, the “form excreted in urine and feces” value ([1]; rats) was “primarily as a sulfate conjugate” and the stability in plasma [2] was “stable”. The “removal of peroxynitrite in lactoperoxidase oxidation” value (lactoperoxidase) was “catalytically remove peroxynitrite”, the Tmax at 28 days ([3]; both sexes, beagle, dog, in vivo, po, dog 28-day PO, all animals, read-out: median tmax) was 1 h and the Tmax at 28 days ([3]; both sexes, beagle, dog, in vivo, po, dog 28-day study (summary), read-out: Tmax) was no more than 1 h. For the same compound, the Cmax at 28 days ([3]; both sexes, beagle, in vivo, po, dog 28-day pivotal study, at some doses) was greater than 100 µg/mL, the “mean t1/2” value ([3]; both, beagle, dog, in vivo, po) was 3.5 h and the Cmax ([3]; Day 1, 100 mg/kg, F) was 69.3 µg/mL. For the same compound, the Cmax ([3]; Day 1, 100 mg/kg, M) was 49.9 µg/mL, the Cmax ([3]; Day 1, 250 mg/kg, F) was 101 µg/mL and the Cmax ([3]; Day 1, 250 mg/kg, M) was 104 µg/mL. The Cmax ([3]; Day 1, 400 mg/kg, F) was 129 µg/mL, the Cmax ([3]; Day 1, 400 mg/kg, M) was 128 µg/mL and the Cmax ([3]; Day 15, 100 mg/kg, F) was 53.0 µg/mL. The Cmax ([3]; Day 15, 100 mg/kg, M) was 50.4 µg/mL, the Cmax ([3]; Day 15, 250 mg/kg, F) was 94.6 µg/mL and the Cmax ([3]; Day 15, 250 mg/kg, M) was 88.0 µg/mL. The Cmax ([3]; Day 15, 400 mg/kg, F) was 123 µg/mL, the Cmax ([3]; Day 15, 400 mg/kg, M) was 112 µg/mL and the Cmax ([3]; Day 28, 100 mg/kg, F) was 60.8 µg/mL. It also gave a Cmax ([3]; Day 28, 100 mg/kg, M) of 45.0 µg/mL, a Cmax ([3]; Day 28, 250 mg/kg, F) of 89.5 µg/mL and a Cmax ([3]; Day 28, 250 mg/kg, M) of 105 µg/mL. The Cmax ([3]; Day 28, 400 mg/kg, F) was 131 µg/mL, the Cmax ([3]; Day 28, 400 mg/kg, M) was 125 µg/mL and the “cytotoxicity (LDH release)” value (Caco-2 cells) was “less than 25%”. For the same compound, the “inhibition” value (OATP1B3) was “does not inhibit”, the “Average Compound 1 Concentration in Dog Plasma” value (“Average Compound 1 Concentration” for short) ([4]; 250 mg/kg PO (Dose 1; Day 1), 0.5 h, F) was 28 µg/mL and the “Average Compound 1 Concentration” value ([4]; 250 mg/kg PO (Dose 1; Day 1), 0.5 h, M) was 71 µg/mL. The “Average Compound 1 Concentration” value ([4]; 250 mg/kg PO (Dose 1; Day 1), 1 h, F) was 54 µg/mL, the “Average Compound 1 Concentration” value ([4]; 250 mg/kg PO (Dose 1; Day 1), 1 h, M) was 110 µg/mL and the “Average Compound 1 Concentration” value ([4]; 250 mg/kg PO (Dose 1; Day 1), 2 h, F) was 46 µg/mL. For the same compound, the “Average Compound 1 Concentration” value ([4]; 250 mg/kg PO (Dose 1; Day 1), 2 h, M) was 91 µg/mL, the “Average Compound 1 Concentration” value ([4]; 350 mg/kg PO (Dose 3; Day 9), 0.5 h, F) was 67 µg/mL and the “Average Compound 1 Concentration” value ([4]; 350 mg/kg PO (Dose 3; Day 9), 0.5 h, M) was 134 µg/mL. The “Average Compound 1 Concentration” value ([4]; 350 mg/kg PO (Dose 3; Day 9), 1 h, F) was 154 µg/mL, the “Average Compound 1 Concentration” value ([4]; 350 mg/kg PO (Dose 3; Day 9), 1 h, M) was 220 µg/mL and the “Average Compound 1 Concentration” value ([4]; 350 mg/kg PO (Dose 3; Day 9), 2 h, F) was 119 µg/mL. The “Average Compound 1 Concentration” value ([4]; 350 mg/kg PO (Dose 3; Day 9), 2 h, M) was 153 µg/mL, the “Average Compound 1 Concentration” value ([4]; 500 mg/kg PO (Dose 2; Day 4), 0.5 h, F) was 87 µg/mL and the “Average Compound 1 Concentration” value ([4]; 500 mg/kg PO (Dose 2; Day 4), 0.5 h, M) was 111 µg/mL. For the same compound, the “Average Compound 1 Concentration” value ([4]; 500 mg/kg PO (Dose 2; Day 4), 1 h, F) was 136 µg/mL, the “Average Compound 1 Concentration” value ([4]; 500 mg/kg PO (Dose 2; Day 4), 1 h, M) was 191 µg/mL and the “Average Compound 1 Concentration” value ([4]; 500 mg/kg PO (Dose 2; Day 4), 2 h, F) was 124 µg/mL. The “Average Compound 1 Concentration” value ([4]; 500 mg/kg PO (Dose 2; Day 4), 2 h, M) was 193 µg/mL and the tolerability ([4]; dogs, single oral (gavage) dose of 500 mg/kg, emesis in three of the four dosed animals) was “not tolerated”.
